Data taken from PubChem BioAssay (NCI).
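All cell lines were grown in 96-well plates and treated with compound for 48 hours. TGI marks complete inhibition of growth.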

Legend:
Assay in all cases: inhibition of tumour cell growth, NCI panel, 48 h
HCT-15 colon = tested on: HCT-15 colon
UO-31 renal = tested on: UO-31 renal
OVCAR-5 ovarian = tested on: OVCAR-5 ovarian
RPMI-8226 leukemia = tested on: RPMI-8226 leukemia
OVCAR-4 ovarian = tested on: OVCAR-4 ovarian
DMS 114 small cell lung = tested on: DMS 114 small cell lung
EKVX NSCLC = tested on: EKVX NSCLC
SNB-19 CNS = tested on: SNB-19 CNS
UACC-62 melanoma = tested on: UACC-62 melanoma
A549 NSCLC = tested on: A549 NSCLC
NCI-H460 lung = tested on: NCI-H460 lung
SF-539 CNS = tested on: SF-539 CNS
OVCAR-8 ovarian = tested on: OVCAR-8 ovarian
RXF 393 renal = tested on: RXF 393 renal
UACC-257 melanoma = tested on: UACC-257 melanoma
IGROV1 ovarian = tested on: IGROV1 ovarian
SW-620 colon = tested on: SW-620 colon
HCC-2998 colon = tested on: HCC-2998 colon
NCI-H226 lung = tested on: NCI-H226 lung
SF-268 CNS = tested on: SF-268 CNS
SK-OV-3 ovarian = tested on: SK-OV-3 ovarian
HCT-116 colon = tested on: HCT-116 colon
MOLT-4 leukemia = tested on: MOLT-4 leukemia
M14 melanoma = tested on: M14 melanoma
COLO 205 colon = tested on: COLO 205 colon
HL-60(TB) leukemia = tested on: HL-60(TB) leukemia
M19-MEL melanoma = tested on: M19-MEL melanoma
XF 498 CNS = tested on: XF 498 CNS
LXFL 529 NSCLC = tested on: LXFL 529 NSCLC
HT29 colon = tested on: HT29 colon
HOP-62 NSCLC = tested on: HOP-62 NSCLC
786-0 renal = tested on: 786-0 renal
K-562 leukemia = tested on: K-562 leukemia
SR leukemia = tested on: SR leukemia
CCRF-CEM leukemia = tested on: CCRF-CEM leukemia
DLD-1 colon = tested on: DLD-1 colon
LOX IMVI melanoma = tested on: LOX IMVI melanoma
SNB-78 CNS = tested on: SNB-78 CNS
SNB-75 CNS = tested on: SNB-75 CNS
ACHN renal = tested on: ACHN renal
SK-MEL-5 melanoma = tested on: SK-MEL-5 melanoma
NCI-H23 lung = tested on: NCI-H23 lung
SK-MEL-28 melanoma = tested on: SK-MEL-28 melanoma
TK-10 renal = tested on: TK-10 renal
KM20L2 colon = tested on: KM20L2 colon
SN12C renal = tested on: SN12C renal
DMS 273 small cell lung = tested on: DMS 273 small cell lung
SK-MEL-2 melanoma = tested on: SK-MEL-2 melanoma
HOP-92 NSCLC = tested on: HOP-92 NSCLC
CAKI-1 renal = tested on: CAKI-1 renal
HOP-18 NSCLC = tested on: HOP-18 NSCLC
U251 CNS = tested on: U251 CNS
SF-295 CNS = tested on: SF-295 CNS
MALME-3M melanoma = tested on: MALME-3M melanoma
NCI-H522 lung = tested on: NCI-H522 lung
OVCAR-3 ovarian = tested on: OVCAR-3 ovarian
A498 renal = tested on: A498 renal
KM12 colon = tested on: KM12 colon
RXF-631 renal = tested on: RXF-631 renal

CCN(CC)CC(=O)NC1c2ccccc2Oc2c(C)cccc21 (configuration not stated)
TGI (HCT-15 colon): > 100 µM
TGI (UO-31 renal): > 100 µM
TGI (OVCAR-5 ovarian): > 100 µM
TGI (RPMI-8226 leukemia): > 100 µM
TGI (OVCAR-4 ovarian): > 100 µM
TGI (DMS 114 small cell lung): > 100 µM
TGI (EKVX NSCLC): > 100 µM
TGI (SNB-19 CNS): > 100 µM
TGI (UACC-62 melanoma): > 100 µM
TGI (A549 NSCLC): > 100 µM
TGI (NCI-H460 lung): > 100 µM
TGI (SF-539 CNS): > 100 µM
TGI (OVCAR-8 ovarian): > 100 µM
TGI (RXF 393 renal): > 100 µM
TGI (UACC-257 melanoma): > 100 µM
TGI (IGROV1 ovarian): > 100 µM
TGI (SW-620 colon): > 100 µM
TGI (HCC-2998 colon): > 100 µM
TGI (NCI-H226 lung): > 100 µM
TGI (SF-268 CNS): > 100 µM
TGI (SK-OV-3 ovarian): > 100 µM
TGI (HCT-116 colon): > 100 µM
TGI (MOLT-4 leukemia): > 100 µM
TGI (M14 melanoma): > 100 µM
TGI (COLO 205 colon): > 100 µM
TGI (HL-60(TB) leukemia): > 100 µM
TGI (M19-MEL melanoma): > 100 µM
TGI (XF 498 CNS): > 100 µM
TGI (LXFL 529 NSCLC): > 100 µM
TGI (HT29 colon): > 100 µM
TGI (HOP-62 NSCLC): > 100 µM
TGI (786-0 renal): > 100 µM
TGI (K-562 leukemia): > 100 µM
TGI (SR leukemia): > 100 µM
TGI (CCRF-CEM leukemia): > 100 µM
TGI (DLD-1 colon): > 100 µM
TGI (LOX IMVI melanoma): > 100 µM
TGI (SNB-78 CNS): > 100 µM
TGI (SNB-75 CNS): > 100 µM
TGI (ACHN renal): > 100 µM
TGI (SK-MEL-5 melanoma): > 100 µM
TGI (NCI-H23 lung): > 100 µM
TGI (SK-MEL-28 melanoma): > 100 µM
TGI (TK-10 renal): > 100 µM
TGI (KM20L2 colon): > 100 µM
TGI (SN12C renal): > 100 µM
TGI (DMS 273 small cell lung): > 100 µM

CCCCCCCCCCSC(=O)NC
TGI (SK-MEL-2 melanoma): 69 µM
TGI (HCT-15 colon): 54.8 µM
TGI (HOP-92 NSCLC): 57.8 µM
TGI (UO-31 renal): > 100 µM
TGI (OVCAR-5 ovarian): > 100 µM
TGI (RPMI-8226 leukemia): 48.8 µM
TGI (OVCAR-4 ovarian): > 100 µM
TGI (EKVX NSCLC): 71.4 µM
TGI (SNB-19 CNS): > 100 µM
TGI (UACC-62 melanoma): > 100 µM
TGI (A549 NSCLC): > 100 µM
TGI (CAKI-1 renal): > 100 µM
TGI (NCI-H460 lung): > 100 µM
TGI (SF-539 CNS): > 100 µM
TGI (OVCAR-8 ovarian): 87.7 µM
TGI (RXF 393 renal): 44.1 µM
TGI (UACC-257 melanoma): 85 µM
TGI (IGROV1 ovarian): > 100 µM
TGI (SW-620 colon): > 100 µM
TGI (HCC-2998 colon): > 100 µM
TGI (HOP-18 NSCLC): > 100 µM
TGI (SF-268 CNS): > 100 µM
TGI (SK-OV-3 ovarian): > 100 µM
TGI (MOLT-4 leukemia): 46.5 µM
TGI (M14 melanoma): 50 µM
TGI (COLO 205 colon): > 100 µM
TGI (HL-60(TB) leukemia): 39.9 µM
TGI (M19-MEL melanoma): > 100 µM
TGI (XF 498 CNS): 54 µM
TGI (U251 CNS): 68.4 µM
TGI (SF-295 CNS): > 100 µM
TGI (LXFL 529 NSCLC): > 100 µM
TGI (HT29 colon): 77 µM
TGI (786-0 renal): > 100 µM
TGI (K-562 leukemia): 67.7 µM
TGI (MALME-3M melanoma): > 100 µM
TGI (NCI-H522 lung): 54.6 µM
TGI (CCRF-CEM leukemia): 48.3 µM
TGI (OVCAR-3 ovarian): > 100 µM
TGI (DLD-1 colon): > 100 µM
TGI (LOX IMVI melanoma): > 100 µM
TGI (SNB-75 CNS): > 100 µM
TGI (ACHN renal): > 100 µM
TGI (A498 renal): > 100 µM
TGI (KM12 colon): > 100 µM
TGI (SK-MEL-5 melanoma): 45.6 µM
TGI (NCI-H23 lung): 99.8 µM
TGI (SK-MEL-28 melanoma): 68.4 µM
TGI (TK-10 renal): > 100 µM
TGI (SN12C renal): 74.4 µM
TGI (DMS 273 small cell lung): > 100 µM

CC(NC1CCCC[C@H]1O)c1ccccc1 (some centres not stated)
TGI (SK-MEL-2 melanoma): > 100 µM
TGI (HOP-92 NSCLC): > 100 µM
TGI (UO-31 renal): > 100 µM
TGI (OVCAR-5 ovarian): > 100 µM
TGI (RPMI-8226 leukemia): > 100 µM
TGI (OVCAR-4 ovarian): > 100 µM
TGI (SNB-19 CNS): > 100 µM
TGI (UACC-62 melanoma): > 100 µM
TGI (A549 NSCLC): > 100 µM
TGI (CAKI-1 renal): > 100 µM
TGI (NCI-H460 lung): > 100 µM
TGI (UACC-257 melanoma): > 100 µM
TGI (IGROV1 ovarian): > 100 µM
TGI (SW-620 colon): > 100 µM
TGI (HCC-2998 colon): > 100 µM
TGI (NCI-H226 lung): > 100 µM
TGI (HOP-18 NSCLC): > 100 µM
TGI (SK-OV-3 ovarian): > 100 µM
TGI (HCT-116 colon): > 100 µM
TGI (MOLT-4 leukemia): > 100 µM
TGI (M14 melanoma): > 100 µM
TGI (COLO 205 colon): > 100 µM
TGI (M19-MEL melanoma): > 100 µM
TGI (U251 CNS): > 100 µM
TGI (LXFL 529 NSCLC): > 100 µM
TGI (HT29 colon): > 100 µM
TGI (HOP-62 NSCLC): > 100 µM
TGI (786-0 renal): > 100 µM
TGI (MALME-3M melanoma): > 100 µM
TGI (DLD-1 colon): > 100 µM
TGI (SNB-78 CNS): > 100 µM
TGI (SNB-75 CNS): > 100 µM
TGI (ACHN renal): > 100 µM
TGI (SK-MEL-5 melanoma): > 100 µM
TGI (SK-MEL-28 melanoma): > 100 µM
TGI (KM20L2 colon): > 100 µM

CCOC(=O)CCC(NC(=O)c1ccc(N=Cc2nc3ccccc3nc2-c2ccccc2)cc1)C(=O)OCC (configuration not stated)
TGI (SK-MEL-2 melanoma): > 100 µM
TGI (HCT-15 colon): > 100 µM
TGI (HOP-92 NSCLC): > 100 µM
TGI (UO-31 renal): > 100 µM
TGI (OVCAR-5 ovarian): > 100 µM
TGI (RPMI-8226 leukemia): > 100 µM
TGI (OVCAR-4 ovarian): > 100 µM
TGI (DMS 114 small cell lung): > 100 µM
TGI (EKVX NSCLC): > 100 µM
TGI (SNB-19 CNS): > 100 µM
TGI (UACC-62 melanoma): > 100 µM
TGI (A549 NSCLC): > 100 µM
TGI (CAKI-1 renal): > 100 µM
TGI (NCI-H460 lung): > 100 µM
TGI (SF-539 CNS): > 100 µM
TGI (OVCAR-8 ovarian): > 100 µM
TGI (RXF 393 renal): > 100 µM
TGI (UACC-257 melanoma): > 100 µM
TGI (IGROV1 ovarian): > 100 µM
TGI (SW-620 colon): > 100 µM
TGI (HCC-2998 colon): > 100 µM
TGI (NCI-H226 lung): > 100 µM
TGI (HOP-18 NSCLC): > 100 µM
TGI (SF-268 CNS): > 100 µM
TGI (SK-OV-3 ovarian): > 100 µM
TGI (HCT-116 colon): > 100 µM
TGI (MOLT-4 leukemia): > 100 µM
TGI (M14 melanoma): > 100 µM
TGI (COLO 205 colon): > 100 µM
TGI (HL-60(TB) leukemia): > 100 µM
TGI (XF 498 CNS): > 100 µM
TGI (U251 CNS): > 100 µM
TGI (SF-295 CNS): > 100 µM
TGI (LXFL 529 NSCLC): > 100 µM
TGI (HT29 colon): > 100 µM
TGI (HOP-62 NSCLC): > 100 µM
TGI (786-0 renal): > 100 µM
TGI (RXF-631 renal): > 100 µM
TGI (K-562 leukemia): > 100 µM
TGI (MALME-3M melanoma): > 100 µM
TGI (NCI-H522 lung): > 100 µM
TGI (SR leukemia): > 100 µM
TGI (CCRF-CEM leukemia): > 100 µM
TGI (OVCAR-3 ovarian): > 100 µM
TGI (DLD-1 colon): > 100 µM
TGI (LOX IMVI melanoma): > 100 µM
TGI (SNB-78 CNS): > 100 µM
TGI (SNB-75 CNS): > 100 µM
TGI (ACHN renal): > 100 µM
TGI (A498 renal): > 100 µM
TGI (KM12 colon): > 100 µM
TGI (SK-MEL-5 melanoma): > 100 µM
TGI (NCI-H23 lung): > 100 µM
TGI (SK-MEL-28 melanoma): > 100 µM
TGI (TK-10 renal): > 100 µM
TGI (KM20L2 colon): > 100 µM
TGI (SN12C renal): > 100 µM
TGI (DMS 273 small cell lung): > 100 µM
